Measurements as given in patent US20230416248A1, “COMPOUNDS AND USES THEREOF” (Foghorn Therapeutics Inc., priority 2020, published 2023).

Legend:
[1] = target: T1, BRG-1 (Homo sapiens, UniProt P51532); assay: ATPase catalytic activity of BRG-1, ADP-Glo in vitro biochemical assay; details: ADP-Glo ATPase assay, 30 nM BRG-1, 400 μM ATP; read-out: BRG1 IC50
T1 construct: made in house; host or cells: High Five insect cells
Procedure: The ATPase catalytic activity of BRM or BRG-1 was measured by an in vitro biochemical assay using ADP-Glo™ (Promega, V9102). The ADP-Glo™ kinase assay is performed in two steps once the reaction is complete. The first step is to deplete any unconsumed ATP in the reaction. The second step is to convert the reaction product ADP to ATP, which will be utilized by the luciferase to generate luminesce and be detected by a luminescence reader, such as Envision.
Then, following addition of 5 μL of ADP-Glo™ Reagent provided in the kit, the reaction incubates at room temperature for 40 minutes. Then, 10 μL of Kinase Detection Reagent provided in the kit is added to convert ADP to ATP, and the reaction incubates at room temperature for 60 minutes. Finally, luminescence measurement is collected with a plate-reading luminometer, such as Envision.

[2] = target: T2, BRM (Homo sapiens, UniProt P51531); assay: ATPase catalytic activity of BRM, ADP-Glo in vitro biochemical assay; details: for IC50: ADP-Glo ATPase assay, 30 nM BRM, 400 μM ATP; for Ratio* (BRG1 IC50 (μM) divided by BRM IC50 (μM)): selectivity ratio BRG1 IC50 / BRM IC50
T2 construct: made in house; host or cells: High Five insect cells
T2 sequence (P51531 whole entry): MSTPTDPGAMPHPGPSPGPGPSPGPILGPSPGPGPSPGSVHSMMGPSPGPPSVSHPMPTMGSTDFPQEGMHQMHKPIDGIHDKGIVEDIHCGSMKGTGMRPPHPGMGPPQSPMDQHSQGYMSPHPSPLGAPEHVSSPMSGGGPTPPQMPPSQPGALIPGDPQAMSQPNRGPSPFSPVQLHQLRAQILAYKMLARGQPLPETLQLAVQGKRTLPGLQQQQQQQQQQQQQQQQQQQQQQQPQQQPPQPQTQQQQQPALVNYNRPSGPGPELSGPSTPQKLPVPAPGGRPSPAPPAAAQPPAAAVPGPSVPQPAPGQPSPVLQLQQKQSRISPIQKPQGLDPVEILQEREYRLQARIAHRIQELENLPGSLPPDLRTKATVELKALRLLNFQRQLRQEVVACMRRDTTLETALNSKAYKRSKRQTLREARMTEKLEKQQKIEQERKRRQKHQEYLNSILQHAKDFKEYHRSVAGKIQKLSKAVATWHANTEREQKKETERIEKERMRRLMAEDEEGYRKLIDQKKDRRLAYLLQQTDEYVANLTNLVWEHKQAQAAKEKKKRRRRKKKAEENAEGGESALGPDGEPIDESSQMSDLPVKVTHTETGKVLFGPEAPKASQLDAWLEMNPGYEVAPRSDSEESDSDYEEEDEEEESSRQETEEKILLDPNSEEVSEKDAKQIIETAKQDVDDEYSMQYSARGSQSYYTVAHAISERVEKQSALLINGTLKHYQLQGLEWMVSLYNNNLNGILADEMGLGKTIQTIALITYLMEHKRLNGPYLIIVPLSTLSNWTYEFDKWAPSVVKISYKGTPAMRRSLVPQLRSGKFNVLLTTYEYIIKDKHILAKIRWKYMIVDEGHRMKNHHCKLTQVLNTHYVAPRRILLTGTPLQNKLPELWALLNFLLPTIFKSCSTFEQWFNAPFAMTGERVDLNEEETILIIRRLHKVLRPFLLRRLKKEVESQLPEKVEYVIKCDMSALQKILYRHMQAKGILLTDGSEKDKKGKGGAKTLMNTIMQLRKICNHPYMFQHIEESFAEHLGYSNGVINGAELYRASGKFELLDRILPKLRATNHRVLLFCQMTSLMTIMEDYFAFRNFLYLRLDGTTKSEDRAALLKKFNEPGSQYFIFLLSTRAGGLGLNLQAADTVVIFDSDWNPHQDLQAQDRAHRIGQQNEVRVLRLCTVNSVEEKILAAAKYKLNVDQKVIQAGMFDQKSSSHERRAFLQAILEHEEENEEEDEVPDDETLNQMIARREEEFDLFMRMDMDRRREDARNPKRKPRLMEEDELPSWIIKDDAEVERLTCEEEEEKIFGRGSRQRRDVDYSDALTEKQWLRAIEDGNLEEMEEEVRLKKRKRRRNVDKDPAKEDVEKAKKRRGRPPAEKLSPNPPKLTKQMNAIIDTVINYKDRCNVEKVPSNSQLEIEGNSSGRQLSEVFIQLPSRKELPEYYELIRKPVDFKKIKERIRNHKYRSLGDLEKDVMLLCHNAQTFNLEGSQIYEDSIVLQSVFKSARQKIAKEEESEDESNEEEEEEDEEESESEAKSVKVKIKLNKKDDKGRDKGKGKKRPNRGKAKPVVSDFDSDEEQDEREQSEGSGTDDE
In short: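 Recombinant BRM (30 nM) hydrolysed 400 μM ATP with 20 nM salmon sperm DNA in pH 8 Tris buffer containing 20 mM MgCl2, 50 mM NaCl, 0.1% Tween-20 and 1 mM DTT, 1 h at room temperature. ADP formed was quantified by ADP-Glo luminescence.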

T1 sequence (P51532 whole entry): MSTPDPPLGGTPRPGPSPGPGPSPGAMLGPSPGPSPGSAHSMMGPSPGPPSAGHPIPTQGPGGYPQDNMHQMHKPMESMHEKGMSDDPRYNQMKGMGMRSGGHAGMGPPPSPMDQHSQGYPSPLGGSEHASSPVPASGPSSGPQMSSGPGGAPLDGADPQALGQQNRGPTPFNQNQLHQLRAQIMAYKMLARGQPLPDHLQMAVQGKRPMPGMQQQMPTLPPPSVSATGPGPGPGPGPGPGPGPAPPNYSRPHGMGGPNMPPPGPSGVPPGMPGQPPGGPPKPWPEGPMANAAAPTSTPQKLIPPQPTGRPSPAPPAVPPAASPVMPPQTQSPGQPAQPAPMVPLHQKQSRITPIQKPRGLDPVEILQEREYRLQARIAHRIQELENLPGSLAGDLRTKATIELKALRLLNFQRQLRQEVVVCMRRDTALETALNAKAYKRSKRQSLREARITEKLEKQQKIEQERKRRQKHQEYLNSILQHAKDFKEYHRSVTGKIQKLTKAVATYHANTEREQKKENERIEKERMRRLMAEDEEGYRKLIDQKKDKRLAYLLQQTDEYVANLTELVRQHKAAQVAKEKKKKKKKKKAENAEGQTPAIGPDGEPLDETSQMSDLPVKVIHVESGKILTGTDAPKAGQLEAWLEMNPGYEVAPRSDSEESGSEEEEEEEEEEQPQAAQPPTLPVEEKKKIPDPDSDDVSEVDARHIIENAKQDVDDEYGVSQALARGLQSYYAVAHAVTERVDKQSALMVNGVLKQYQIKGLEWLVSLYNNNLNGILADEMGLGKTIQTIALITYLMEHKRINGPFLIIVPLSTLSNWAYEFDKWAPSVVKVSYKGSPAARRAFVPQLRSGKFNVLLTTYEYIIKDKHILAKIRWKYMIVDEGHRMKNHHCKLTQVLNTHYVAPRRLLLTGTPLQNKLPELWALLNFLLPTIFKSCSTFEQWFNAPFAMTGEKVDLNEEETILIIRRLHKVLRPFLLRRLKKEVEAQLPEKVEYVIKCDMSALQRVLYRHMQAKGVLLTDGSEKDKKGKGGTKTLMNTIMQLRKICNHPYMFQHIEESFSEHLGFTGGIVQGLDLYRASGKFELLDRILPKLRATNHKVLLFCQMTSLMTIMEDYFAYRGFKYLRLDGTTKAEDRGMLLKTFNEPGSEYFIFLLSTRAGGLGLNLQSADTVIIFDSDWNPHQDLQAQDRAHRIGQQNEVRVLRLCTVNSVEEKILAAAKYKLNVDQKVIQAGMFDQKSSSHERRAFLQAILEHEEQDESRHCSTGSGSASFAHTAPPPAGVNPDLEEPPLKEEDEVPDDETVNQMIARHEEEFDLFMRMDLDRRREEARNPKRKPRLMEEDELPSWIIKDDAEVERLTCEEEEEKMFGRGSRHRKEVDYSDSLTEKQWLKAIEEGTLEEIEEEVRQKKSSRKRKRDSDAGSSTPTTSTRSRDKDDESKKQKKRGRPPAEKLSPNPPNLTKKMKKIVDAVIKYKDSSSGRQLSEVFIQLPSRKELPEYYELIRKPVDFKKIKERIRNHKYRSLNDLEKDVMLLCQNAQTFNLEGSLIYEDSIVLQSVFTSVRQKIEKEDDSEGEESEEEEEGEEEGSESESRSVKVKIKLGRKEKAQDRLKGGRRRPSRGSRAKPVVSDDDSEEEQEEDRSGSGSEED

| Structure (SMILES) | IC50 [1] [nM] | IC50 [2] [nM] | Ratio* (BRG1 IC50 (μM) divided by BRM IC50 (μM)) [2] |
| --- | --- | --- | --- |
| C[C@@H]1CN(c2cccc(-c3ccc4cnc(CNC(=O)c5ccc6c(c5)S(=O)(=O)CCCC6)cc4n3)n2)C[C@H](C)O1 [Compound 91] | 17 | 4.8 | 3.52 |
| CO[C@@H]1CCCN(c2cccc(-c3ccc4cnc(CNC(=O)c5ccc6c(c5)S(=O)(=O)CCOC6)cc4n3)n2)C1 [Compound 92] | 103 | 7.7 | 13.36 |
| CO[C@H]1CCCN(c2cccc(-c3ccc4cnc(CNC(=O)c5ccc6c(c5)S(=O)(=O)CCOC6)cc4n3)n2)C1 [Compound 93] | 93.6 | 9.6 | 9.74 |
| CN(c1cccc(-c2ccc3cnc(CNC(=O)c4ccc5c(c4)S(=O)(=O)CCOC5)cc3n2)n1)C1CC1 [Compound 94] | 288 | 32 | 9.02 |
| CS(=O)(=O)c1cc(C(=O)NCc2cc3nc(-c4cccc(N5CC[C@H]6COC[C@H]6C5)n4)ccc3cn2)ccc1C(F)F [Compound 95] | 610 | 40.7 | 15.00 |
| CS(=O)(=O)c1cc(C(=O)NCc2cc3nc(-c4cccc(N5CC[C@@H]6COC[C@@H]6C5)n4)ccc3cn2)ccc1C(F)F [Compound 96] | 700 | 49.7 | 14.09 |
| COCCN(C)c1cccc(-c2ccc3cnc(CNC(=O)c4ccc(Cl)c(S(C)(=O)=O)c4)cc3n2)n1 [Compound 97] | 324 | 20.3 | 15.97 |
| CS(=O)(=O)c1cc(C(=O)NCc2cc3nc(-c4cccc(N5CC[C@H]6OCC[C@@H]6C5)n4)ccc3cn2)ccc1Cl [Compound 98] | 257 | 33 | 7.80 |
| CS(=O)(=O)c1cc(C(=O)NCc2cc3nc(-c4cccc(N5CC[C@@H]6OCC[C@H]6C5)n4)ccc3cn2)ccc1Cl [Compound 99] | 884 | 78.7 | 11.24 |
| COCCN(C)c1cccc(-c2ccc3cnc(CNC(=O)c4cc(F)c5c(c4)S(=O)(=O)CCOC5)cc3n2)n1 [Compound 100] | 94.1 | 8 | 11.83 |
| Cc1cc(C(=O)NCc2cc3nc(-c4cccc(N5C[C@@H](C)O[C@@H](C)C5)n4)ccc3cn2)cc2c1COCCS2(=O)=O [Compound 101] | 57.7 | 7.9 | 7.32 |
| COc1cc(Cl)ccc1-c1ccc2cnc(CNC(=O)c3ccc4c(c3)S(=O)(=O)CCOC4)cc2n1 [Compound 102] | 143 | 18.7 | 7.68 |
| O=C(NCc1cc2nc(-c3cccc(OCC(F)F)c3)ccc2cn1)c1ccc2c(c1)S(=O)(=O)CCOC2 [Compound 103] | 2770 | 252 | 10.96 |
| C[C@@H]1COC[C@H](C)N1c1cccc(-c2ccc3cnc(CNC(=O)c4ccc5c(c4)S(=O)(=O)CCOC5)cc3n2)n1 [Compound 104] | 903 | 203 | 4.45 |
| COCCN(C)c1cccc(-c2ccc3cnc(CNC(=O)c4cnc(C(F)F)c(S(C)(=O)=O)c4)cc3n2)n1 [Compound 105] | 937 | 69.9 | 13.41 |
| CO[C@H]1C[C@H](c2cccc(-c3ccc4cnc(CNC(=O)c5ccc6c(c5)S(=O)(=O)CCOC6)cc4n3)n2)C1 [Compound 106] | 667 | 76.1 | 8.76 |

| Structure (SMILES) | IC50 [1] [nM] | IC50 [2] [nM] | Ratio* (BRG1 IC50 (μM) divided by BRM IC50 (μM)) [2] |
| --- | --- | --- | --- |
| Cc1ncc(C(=O)NCc2cc3nc(-c4cccc(N5C[C@@H](C)O[C@@H](C)C5)n4)ccc3cn2)cc1S(C)(=O)=O [Compound 107] | 56 | 5.6 | 9.98 |
| CN(c1ccccn1)c1ccc2cnc(CNC(=O)c3ccc4c(c3)S(=O)(=O)CCOC4)cc2n1 [Compound 108] | 5000 | 672 | 7.43 |
| COCCN1CCCc2ccc(-c3ccc4cnc(CNC(=O)c5ccc6c(c5)S(=O)(=O)CCOC6)cc4n3)nc21 [Compound 109] | 127 | 16.9 | 7.52 |
| COCCN(C)c1cccc(-c2ccc3cnc(CNC(=O)c4ccc(C(F)F)c(S(C)(=O)=O)c4)cc3n2)n1 [Compound 110] | 407 | 20.9 | 19.51 |
| C[C@@H]1CN(c2nc(-c3ccc4cnc(CNC(=O)c5ccc6c(c5)S(=O)(=O)CCOC6)cc4n3)ccc2F)C[C@H](C)O1 [Compound 111] | 27.4 | 6 | 4.58 |
| C[C@@H]1CN(c2cccc(-c3ccc4cnc(CNC(=O)c5ccc6c(c5)S(=O)(=O)CCOC6)cc4n3)c2)C[C@H](C)O1 [Compound 112] | 176 | 12.9 | 13.71 |
| CO[C@H]1C[C@@H](c2cccc(-c3ccc4cnc(CNC(=O)c5ccc6c(c5)S(=O)(=O)CCOC6)cc4n3)n2)C1 [Compound 113] | 583 | 59.5 | 9.79 |
| COCc1c(Cl)cc(C(=O)NCc2cc3nc(-c4cccc(N5C[C@@H](C)O[C@@H](C)C5)n4)ccc3cn2)cc1S(C)(=O)=O [Compound 114] | 1610 | 70.8 | 22.76 |
| CN(CC(F)F)c1cccc(-c2ccc3cnc(CNC(=O)c4ccc5c(c4)S(=O)(=O)CCOC5)cc3n2)n1 [Compound 115] | 236 | 23.5 | 10.05 |
| CN(c1cccc(-c2ccc3cnc(CNC(=O)c4ccc5c(c4)S(=O)(=O)CCOC5)cc3n2)n1)[C@@H]1CCOC1 [Compound 116] | 236 | 22.6 | 10.43 |
| CN(c1cccc(-c2ccc3cnc(CNC(=O)c4ccc5c(c4)S(=O)(=O)CCOC5)cc3n2)n1)[C@H]1CCOC1 [Compound 117] | 313 | 44.6 | 7.01 |
| COc1cc(C(F)F)ccc1-c1ccc2cnc(CNC(=O)c3ccc4c(c3)S(=O)(=O)CCOC4)cc2n1 [Compound 118] | 252 | 24.9 | 10.11 |
| O=C(NCc1cc2nc(-c3ccc4c(n3)N(CC(F)F)CC4)ccc2cn1)c1ccc2c(c1)S(=O)(=O)CCOC2 [Compound 119] | 221 | 40 | 5.53 |
| O=C(NCc1cc2nc(-c3cccc(C4(CF)CC4)n3)ccc2cn1)c1ccc2c(c1)S(=O)(=O)CCOC2 [Compound 120] | 469 | 44.7 | 10.48 |
| C[C@@H]1CN(c2cccc(-c3ccc4cnc([C@@H](C)NC(=O)c5ccc6c(c5)S(=O)(=O)CCOC6)cc4n3)n2)C[C@H](C)O1 [Compound 121] | 497 | 86.7 | 5.73 |
| C[C@@H]1CN(c2cccc(-c3ccc4cnc([C@H](C)NC(=O)c5ccc6c(c5)S(=O)(=O)CCOC6)cc4n3)n2)C[C@H](C)O1 [Compound 122] | 67.7 | 10.3 | 6.56 |
